# Measured values from BindingDB's records for doi:10.1016/s0960-894x(00)00026-3 (Universit&#224, 2000).
# How the values were obtained:
# [1] = Inhibition of Clostridium histolyticum collagenase (ChC) using a linear regression program
# [2] = Inhibition of Clostridium histolyticum collagenase using a linear regression program
Structure (SMILES),Ki [1] [µM],Ki [2] [µM]
CC(C(=O)NO)N(Cc1ccc([N+](=O)[O-])cc1)S(=O)(=O)c1ccc([N+](=O)[O-])c(Cl)c1 (stereo not given) [2-[(3-Chloro-4-nitro-benzenesulfonyl)-(4-nitro-benzyl)-amino]-N-hydroxy-propionamide],9,–
CC(C(=O)NO)N(Cc1ccc([N+](=O)[O-])cc1)S(=O)(=O)c1ccc([N+](=O)[O-])cc1 (stereo not given) [N-Hydroxy-2-[(4-nitro-benzenesulfonyl)-(4-nitro-benzyl)-amino]-propionamide],–,10
"Cc1cc(C)c(S(=O)(=O)N(Cc2ccc([N+](=O)[O-])cc2)C(C)C(=O)NO)c(C)c1 (stereo not given) [N-Hydroxy-2-[(4-nitro-benzyl)-(2,4,6-trimethyl-benzenesulfonyl)-amino]-propionamide]",–,17
CC(C(=O)NO)N(Cc1ccc([N+](=O)[O-])cc1)S(=O)(=O)c1cccc(C(F)(F)F)c1 (stereo not given) [N-Hydroxy-2-[(4-nitro-benzyl)-(3-trifluoromethyl-benzenesulfonyl)-amino]-propionamide],–,6
CC(C(=O)NO)N(Cc1ccc([N+](=O)[O-])cc1)Sc1ccc([N+](=O)[O-])cc1 (stereo not given) [N-Hydroxy-2-[(4-nitro-benzyl)-(4-nitro-phenylsulfanyl)-amino]-propionamide],–,11
CC(C(=O)NO)N(Cc1ccc([N+](=O)[O-])cc1)S(=O)(=O)c1cccc2cccnc12 (stereo not given) [N-Hydroxy-2-[(4-nitro-benzyl)-(quinoline-8-sulfonyl)-amino]-propionamide],–,8
CC(C(=O)NO)N(Cc1ccc([N+](=O)[O-])cc1)S(=O)(=O)c1cccs1 (stereo not given) [N-Hydroxy-2-[(4-nitro-benzyl)-(thiophene-2-sulfonyl)-amino]-propionamide],–,11
Cc1ccc(S(=O)(=O)N(Cc2ccc([N+](=O)[O-])cc2)C(C)C(=O)NO)cc1 (stereo not given) [N-Hydroxy-2-[(4-nitro-benzyl)-(toluene-4-sulfonyl)-amino]-propionamide],–,36
CC(C(=O)NO)N(Cc1ccc([N+](=O)[O-])cc1)S(=O)(=O)c1c(F)c(F)c(F)c(F)c1F (stereo not given) [N-Hydroxy-2-[(4-nitro-benzyl)-pentafluorobenzenesulfonyl-amino]-propionamide],–,5
CC(C(=O)NO)N(Cc1ccc([N+](=O)[O-])cc1)S(=O)(=O)Cc1ccccc1 (stereo not given) [N-Hydroxy-2-[(4-nitro-benzyl)-phenylmethanesulfonyl-amino]-propionamide],–,50
CC(C(=O)NO)N(Cc1ccc([N+](=O)[O-])cc1)S(=O)(=O)C(Cl)(Cl)Cl (stereo not given) [N-Hydroxy-2-[(4-nitro-benzyl)-trichloromethanesulfonyl-amino]-propionamide],–,52
CC(C(=O)NO)N(Cc1ccc([N+](=O)[O-])cc1)S(=O)(=O)C(F)(F)F (stereo not given) [N-Hydroxy-2-[(4-nitro-benzyl)-trifluoromethanesulfonyl-amino]-propionamide],–,75
CC(C(=O)NO)N(Cc1ccc([N+](=O)[O-])cc1)S(=O)(=O)c1cccc2ccccc12 (stereo not given) [N-Hydroxy-2-[(naphthalene-1-sulfonyl)-(4-nitro-benzyl)-amino]-propionamide],–,7
CC(C(=O)NO)N(Cc1ccc([N+](=O)[O-])cc1)S(=O)(=O)c1ccc2ccccc2c1 (stereo not given) [N-Hydroxy-2-[(naphthalene-2-sulfonyl)-(4-nitro-benzyl)-amino]-propionamide],–,8
CC(C(=O)NO)N(Cc1ccc([N+](=O)[O-])cc1)S(C)(=O)=O (stereo not given) [N-Hydroxy-2-[methanesulfonyl-(4-nitro-benzyl)-amino]-propionamide],–,76
Cc1ccccc1S(=O)(=O)NC(=O)N(Cc1ccc([N+](=O)[O-])cc1)C(C)C(=O)NO (stereo not given) [N-hydroxy-2-[({[(2-methylphenyl)sulfonyl]amino}carbonyl)(4-nitrobenzyl)amino]propanamide],–,8
Cc1ccc(S(=O)(=O)NC(=O)N(Cc2ccc([N+](=O)[O-])cc2)C(C)C(=O)NO)cc1 (stereo not given) [N-hydroxy-2-[({[(4-methylphenyl)sulfonyl]amino}carbonyl)(4-nitrobenzyl)amino]propanamide],–,12
CC(C(=O)NO)N(Cc1ccc([N+](=O)[O-])cc1)S(=O)(=O)c1cccc(NC(=O)OC(C)(C)C)c1 (stereo not given) [{3-[(1-Hydroxycarbamoyl-ethyl)-(4-nitro-benzyl)-sulfamoyl]-phenyl}-carbamic acid tert-butyl ester],–,8
CC(C(=O)NO)N(Cc1ccc([N+](=O)[O-])cc1)S(=O)(=O)c1ccc(NC(=O)OC(C)(C)C)cc1 (stereo not given) [{4-[(1-Hydroxycarbamoyl-ethyl)-(4-nitro-benzyl)-sulfamoyl]-phenyl}-carbamic acid tert-butyl ester],–,10
COc1ccc(S(=O)(=O)N(Cc2ccc([N+](=O)[O-])cc2)C(C)C(=O)NO)cc1NC(=O)OC(C)(C)C (stereo not given) [{5-[(1-Hydroxycarbamoyl-ethyl)-(4-nitro-benzyl)-sulfamoyl]-2-methoxy-phenyl}-carbamic acid tert-butyl ester],–,8
